According to patent US20250313546A1, “NUCLEIC ACID BINDERS” (UNIVERSITY OF STRATHCLYDE, priority 2022, published 2025):
In brackets after ≈: the same amount, converted by molar mass.

Legend:
Assay in all cases: Antibacterial MIC, broth microdilution (CLSI)
Type in all cases: cell-based
[1] = system: Staphylococcus aureus (ATCC 43300); conditions: Staphylococcus aureus, ATCC43300; read-out: MIC80 S. aureus
[2] = system: Enterococcus faecalis (ATCC 51299); conditions: Enterococcus faecalis, ATCC51299; read-out: MIC80 E. faecalis
[3] = system: Escherichia coli (ATCC 25922); conditions: Escherichia coli, ATCC25922; read-out: MIC80 E. coli

| Compound | MIC80 [1] | MIC80 [2] | MIC80 [3] |
| --- | --- | --- | --- |
| CNC(=N)CCNC(=O)c1cc(NC(=O)c2cc(NC(=O)c3ccc(/C=C/c4ccc(OC)cc4)nc3)cn2C)cn1C [Ia55, (E)-N-(5-((5-((3-imino-3-(methylamino)propyl)carbamoyl)-1-methyl-1H-pyrrol-3-yl)carbamoyl)-1-methyl-1H-pyrrol-3-yl)-6-(4-methoxystyryl)nicotinamide] | 5 to 25 µM (≈ 2.91 to 14.6 µg/mL) | 5 to 25 µM (≈ 2.91 to 14.6 µg/mL) | > 100 µM |
| Cn1cc(NC(=O)c2cc(NC(=O)c3ccc(/C=C/c4cnc5ccccc5c4)cc3)cn2C)cc1C(=O)NCCC(=N)NCC(F)F [Ia62, (E)-N-(3-((2,2-difluoroethyl)amino)-3-iminopropyl)-1-methyl-4-(1-methyl-4-(4-(2-(quinolin-3-yl)vinyl)benzamido)-1H-pyrrole-2-carboxamido)-1H-pyrrole-2-carboxamide] | < 5 µM | < 5 µM | > 100 µM |
| [H]/N=C(\CCNC(=O)c1cc(NC(=O)c2cc(NC(=O)c3ccc(C=Cc4ccc5nonc5c4)cc3)cn2C)cn1C)NOC [Ia30, (E)-4-(4-(2-(benzo[c][1,2,5]oxadiazol-5-yl)vinyl)benzamido)-N-(5-((3-imino-3-(methoxyamino)propyl)carbamoyl)-1-methyl-1H-pyrrol-3-yl)-1-methyl-1H-pyrrole-2-carboxamide] | 5 to 25 µM (≈ 3.05 to 15.2 µg/mL) | 5 to 25 µM (≈ 3.05 to 15.2 µg/mL) | > 100 µM |
| C/N=C(/CCNC(=O)c1cc(NC(=O)c2cc(NC(=O)c3ccc(/C=C/c4ccc(F)cc4)nc3)cn2C)cn1C)NC [Ia65, 6-((E)-4-fluorostyryl)-N-(1-methyl-5-((1-methyl-5-(((Z)-3-(methylamino)-3-(methylimino)propyl)carbamoyl)-1H-pyrrol-3-yl)carbamoyl)-1H-pyrrol-3-yl)nicotinamide] | < 5 µM | – | – |
| [H]/N=C(\CCNC(=O)c1cc(NC(=O)c2cc(NC(=O)c3ccc(C=Cc4ccc(N(C)C)cc4)nc3)cn2C)cn1C)N1CCN(C)CC1 [Ib10, (E)-6-(4-(dimethylamino)styryl)-N-(5-((5-((3-imino-3-(4-methylpiperazin-1-yl)propyl)carbamoyl)-1-methyl-1H-pyrrol-3-yl)carbamoyl)-1-methyl-1H-pyrrol-3-yl)nicotinamide] | 5 to 25 µM (≈ 3.32 to 16.6 µg/mL) | > 100 µM | > 100 µM |
| CN(C)C(=O)c1cc(NC(=O)c2cc(NC(=O)c3ccc(/C=C/c4cnc5ccccc5c4)cc3)cn2C)cn1C [IVa16, (E)-N,N,1-trimethyl-4-(1-methyl-4-(4-(2-(quinolin-3-yl)vinyl)benzamido)-1H-pyrrole-2-carboxamido)-1H-pyrrole-2-carboxamide] | < 5 µM | < 5 µM | > 100 µM |
| CCCNC(=O)c1cc(NC(=O)c2cc(NC(=O)c3ccc(/C=C/c4cnc5ccccc5c4)cc3)cn2C)cn1C [IVa17, (E)-1-methyl-4-(1-methyl-4-(4-(2-(quinolin-3-yl)vinyl)benzamido)-1H-pyrrole-2-carboxamido)-N-propyl-1H-pyrrole-2-carboxamide] | < 5 µM | < 5 µM | > 100 µM |
| [H]/N=C(\CCNC(=O)c1cc(NC(=O)c2cc(NC(=O)c3ccc(C=Cc4ccc(N(C)C)cc4)nc3)cn2C)cn1C)N1CCOCC1 [Ib11, (E)-6-(4-(dimethylamino)styryl)-N-(5-((5-((3-imino-3-morpholinopropyl)carbamoyl)-1-methyl-1H-pyrrol-3-yl)carbamoyl)-1-methyl-1H-pyrrol-3-yl)nicotinamide] | < 5 µM | 5 to 25 µM (≈ 3.26 to 16.3 µg/mL) | > 100 µM |
| CC/N=C(/CCNC(=O)c1cc(NC(=O)c2cc(NC(=O)c3ccc(/C=C/c4cnc5ccccc5c4)cc3)cn2C)cn1C)NCC [Ia50, N—((Z)-3-(ethylamino)-3-(ethylimino)propyl)-1-methyl-4-(1-methyl-4-(4-((E)-2-(quinolin-3-yl)vinyl)benzamido)-1H-pyrrole-2-carboxamido)-1H-pyrrole-2-carboxamide] | 25 to 100 µM (≈ 16.1 to 64.5 µg/mL) | 25 to 100 µM (≈ 16.1 to 64.5 µg/mL) | > 100 µM |
| Cn1cc(NC(=O)c2cc(NC(=O)c3ccc(/C=C/c4cnc5ccccc5c4)cc3)cn2C)cc1C(=O)NCCCCCC(=N)N [II3, (E)-N-(6-amino-6-iminohexyl)-1-methyl-4-(1-methyl-4-(4-(2-(quinolin-3-yl)vinyl)benzamido)-1H-pyrrole-2-carboxamido)-1H-pyrrole-2-carboxamide] | 5 to 25 µM (≈ 3.15 to 15.8 µg/mL) | > 100 µM | > 100 µM |
| C/N=C(\CCNC(=O)c1cc(NC(=O)c2cc(NC(=O)c3ccc(/C=C/c4cccc(OC)c4)cc3)cn2C)cn1C)NC [Ia53, 4-(4-((E)-3-methoxystyryl)benzamido)-1-methyl-N-(1-methyl-5-(((E)-3-(methylamino)-3-(methylimino)propyl)carbamoyl)-1H-pyrrol-3-yl)-1H-pyrrole-2-carboxamide] | < 5 µM | 5 to 25 µM (≈ 2.98 to 14.9 µg/mL) | > 100 µM |
| CCCCCC[N+]1(CCNC(=O)c2cc(NC(=O)c3cc(NC(=O)c4ccc(/C=C/c5cnc6ccccc6c5)cc4)cn3C)cn2C)CCOCC1 [Id1, (E)-4-hexyl-4-(2-(1-methyl-4-(1-methyl-4-(4-(2-(quinolin-3-yl)vinyl)benzamido)-1H-pyrrole-2-carboxamido)-1H-pyrrole-2-carboxamido)ethyl)morpholin-4-ium] | < 5 µM | > 100 µM | > 100 µM |
| CNC(=N)CCNC(=O)c1cc(NC(=O)c2cc(NC(=O)c3ccc(/C=C/c4ccc5ccccc5c4)cc3)cn2C)cn1C [Ia4, (E)-N-(3-imino-3-(methylamino)propyl)-1-methyl-4-(1-methyl-4-(4-(2-(naphthalen-2-yl)vinyl)benzamido)-1H-pyrrole-2-carboxamido)-1H-pyrrole-2-carboxamide] | 5 to 25 µM (≈ 3.01 to 15 µg/mL) | – | > 100 µM |
| C/N=C(/CCNC(=O)c1cc(NC(=O)c2cc(NC(=O)c3ccc(/C=C/c4cncnc4)cc3)cn2C)cn1C)NC [Ia60, 1-methyl-4-(1-methyl-4-(4-((E)-2-(pyrimidin-5-yl)vinyl)benzamido)-1H-pyrrole-2-carboxamido)-N—((Z)-3-(methylamino)-3-(methylimino)propyl)-1H-pyrrole-2-carboxamide] | < 5 µM | 5 to 25 µM (≈ 2.84 to 14.2 µg/mL) | > 100 µM |
| CONC(=N)CCNC(=O)c1cc(NC(=O)c2cc(NC(=O)c3ccc(/C=C/c4cccc(OC)c4)cc3)cn2C)cn1C [Ia29, (E)-N-(3-imino-3-(methoxyamino)propyl)-4-(4-(4-(3-methoxystyryl)benzamido)-1-methyl-1H-pyrrole-2-carboxamido)-1-methyl-1H-pyrrole-2-carboxamide] | < 5 µM | 5 to 25 µM (≈ 2.99 to 14.9 µg/mL) | > 100 µM |
| CC[N+](C)(C)CCCNC(=O)c1cc(NC(=O)c2cc(NC(=O)c3ccc(/C=C/c4ccc5nonc5c4)cc3)cn2C)cn1C [Ic22, (E)-3-(4-(4-(4-(2-(benzo[c][1,2,5]oxadiazol-5-yl)vinyl)benzamido)-1-methyl-1H-pyrrole-2-carboxamido)-1-methyl-1H-pyrrole-2-carboxamido)-N-ethyl-N,N-dimethylpropan-1-aminium] | 25 to 100 µM | – | – |
| CC[N+](C)(C)CCCNC(=O)c1cc(NC(=O)c2cc(NC(=O)c3ccc(/C=C/c4ccc(F)c(OC)c4)nc3)cn2C)cn1C [Ic21, (E)-N-ethyl-3-(4-(4-(6-(4-fluoro-3-methoxystyryl)nicotinamido)-1-methyl-1H-pyrrole-2-carboxamido)-1-methyl-1H-pyrrole-2-carboxamido)-N,N-dimethylpropan-1-aminium] | 25 to 100 µM | – | – |
| [H]/N=C(\CCNC(=O)c1cc(NC(=O)c2cc(NC(=O)c3ccc(C=Cc4ccc(N(C)C)cc4)nc3)cn2C)cn1C)NCCc1ccccc1 [Ia49, (E)-6-(4-(dimethylamino)styryl)-N-(5-((5-((3-imino-3-(phenethylamino)propyl)carbamoyl)-1-methyl-1H-pyrrol-3-yl)carbamoyl)-1-methyl-1H-pyrrol-3-yl)nicotinamide] | < 5 µM | > 100 µM | > 100 µM |
| Cn1cc(NC(=O)c2cc(NC(=O)c3ccc(/C=C/c4cnc5ccccc5c4)cc3)cn2C)cc1C(=O)NCCCCC(=N)N [II1, (E)-N-(5-amino-5-iminopentyl)-1-methyl-4-(1-methyl-4-(4-(2-(quinolin-3-yl)vinyl)benzamido)-1H-pyrrole-2-carboxamido)-1H-pyrrole-2-carboxamide] | 25 to 100 µM (≈ 15.4 to 61.7 µg/mL) | > 100 µM | > 100 µM |
| CC[N+](C)(C)CCCNC(=O)c1cc(NC(=O)c2cc(NC(=O)c3ccc(/C=C/c4cccc(C(F)(F)F)c4)nc3)cn2C)cn1C [Ic20, (E)-N-ethyl-N,N-dimethyl-3-(1-methyl-4-(1-methyl-4-(6-(3-(trifluoromethyl)styryl)nicotinamido)-1H-pyrrole-2-carboxamido)-1H-pyrrole-2-carboxamido)propan-1-aminium] | 25 to 100 µM | – | – |
| CC[N+](C)(C)CCCNC(=O)c1cc(NC(=O)c2cc(NC(=O)c3ccc(/C=C/c4cnc5ccccc5c4)cc3)cn2C)cn1C [Ic23, (E)-N-ethyl-N,N-dimethyl-3-(1-methyl-4-(1-methyl-4-(4-(2-(quinolin-3-yl)vinyl)benzamido)-1H-pyrrole-2-carboxamido)-1H-pyrrole-2-carboxamido)propan-1-aminium] | 5 to 25 µM | – | – |
| C/N=C(/CCNC(=O)c1cc(NC(=O)c2cc(NC(=O)c3ccc(/C=C/c4cccc(F)c4)cc3)cn2C)cn1C)NC [Ia64, 4-(4-((E)-3-fluorostyryl)benzamido)-1-methyl-N-(1-methyl-5-(((Z)-3-(methylamino)-3-(methylimino)propyl)carbamoyl)-1H-pyrrol-3-yl)-1H-pyrrole-2-carboxamide] | 5 to 25 µM (≈ 2.92 to 14.6 µg/mL) | – | – |
| CNC(=N)CCNC(=O)c1cc(NC(=O)c2cc(NC(=O)c3ccc(/C=C/c4ccc(C(F)(F)F)cc4)cc3)cn2C)cn1C [Ia2, (E)-N-(3-imino-3-(methylamino)propyl)-1-methyl-4-(1-methyl-4-(4-(4-(trifluoromethyl)styryl)benzamido)-1H-pyrrole-2-carboxamido)-1H-pyrrole-2-carboxamide] | < 5 µM | – | > 100 µM |
